In test [1] the test system is Meloidogyne incognita nematodes. The test can be described thus: Miniaturized greenhouse nematicidal efficacy assay on cucumber seedlings in sand vials (root gall rating). Particulars: 500 M. incognita eggs, harvest 10 to 12 days after inoculation, average of triplicate ratings.
Protocol: A miniaturized greenhouse assay was conducted to study the effects of several 3,5-disubstituted-1,3,4-oxadiazol-2(3H)-one compounds on Meloidogyne incognita nematodes.
Cucumber seeds were sprouted for 3 days in moist paper towels. Acceptable sprouts were 3 to 4 cm long, with several lateral roots just emerging.
Each test solution was evaluated in triplicate. Dry sand (10 mL) was added to each vial. Seedlings were planted by tilting the vial and laying the seedling in the correct orientation so that the cotyledons were just above the sand, and then tilting back to cover the radicles with sand. A sample of the test solution (3.3 mL) was then added to each vial, and the vials were placed in racks under fluorescent light banks. The vials were inoculated two days after planting by adding 500 vermiform M. incognita eggs to each vial in deionized or spring water (50 μL). The vials were then kept under the fluorescent lamps at ambient room temperature and watered as needed with deionized water (1 mL), usually twice during duration of test.
Harvest of the cucumber plants was performed 10 to 12 days after inoculation by washing sand off the roots. A root gall rating was assigned using the following Gall rating scale (Gall: % root mass galled): 0=0-5%; 1=6-20%; 2=21-50%; and 3=51-100%.
Comparative solutions comprising other commercially available nematicidal compounds were also evaluated as controls.
In test [2] the test system is soybean cyst nematode (SCN). The test can be described thus: SCN greenhouse sand assay on soybean plants. Particulars: SCN eggs about four hours after application, rated 28 days after egg inoculation. It counts as in vivo. The method, then: (§1) First, a concentrate was prepared by dissolving 2 milligrams of the test compound in 2 mL of an acetone solvent. Test solutions were then prepared by combining an appropriate amount of the concentrate with an aqueous surfactant solution comprising TRITON X100 (0.05%).
A similar experiment was conducted with regard to control of soybean cyst nematode (SCN) on soybean plants. Soybean seeds were planted in a media consisting of 80% sand and 20% silt loam soil (v/v) in two inch square plastic pots. […] Approximately four hours after application of the nematicidal test solution, the nematode soybean cyst nematode (SCN) eggs were applied using the procedure described above. The soybean plants were rated for root galling 28 days after the egg inoculation.

Test [3] relates to root knot nematode (RKN). The test can be described thus: Seed treatment on cucumber for RKN control. Conditions: 1000 root knot eggs five days after planting, galling rated 14 days after inoculation, versus untreated blank. It counts as in vivo. As for the experimental part: The excess of 30% by weight of test compound was added for each treatment that would equal 130% of the desired rate to assure target seed loading. The test compound (the amount as described in Table 3A below) and surfactant (optional) were dissolved in 3 mL acetone. AGRIMER VA-6 inert polymer was added at a concentration of 15% of the total test compound weight. Seeds were placed in the drum of the batch lab treater. The drum was rotated. The solutions of test compositions as described above were pipette onto seeds. The drum continued to rotate until the seed were dry.
3 inch by 3 inch plastic pots were filled with a media consisting of 80% sand and 20% silt loam soil (v/v). Treated cucumber seeds were planted ½ inch below the soil surface. Pots were watered as needed. Five days after planting the cucumber plants had the first true leaf emerging and each pot was inoculated with 1000 vermiform root knot eggs. The cucumber plants were rated for root galling 14 days after inoculation. The gall ratings were scored on a scale of 0-100 where, 0=no galls and 100=completely galled. Percent control was determined by comparison to the blank (untreated).

For test [4], the system named is root knot nematode (RKN). The test can be described thus: RKN greenhouse soil assay on cucumber plants (7 day longevity test). It counts as in vivo. Particulars: inoculated 7 days after application, root galling rated 14 days after egg inoculation, galling reduction relative to control blank. As for the experimental part: as §1
Cucumber seeds were planted in a sandy soil mixture in two inch square plastic pots. When the cotyledons were fully opened and just as the first leaf began to emerge, usually 7 days after planting, a nematicidal test solution was applied to each pot. Five milliliters of the appropriate chemical solution was pipetted to the media surface, making sure to avoid contact with the base of the plant. Immediately following chemical application, using a mist nozzle, the pot surface was wetted sufficiently to saturate the pot, effectively watering the test solution into the soil.
Seven days following application of the test solution, each pot was inoculated with root knot nematode (RKN) eggs. A nematode egg slurry was prepared by adding RKN nematode eggs to distilled water to create a concentration of 1000 vermiform eggs […] of water. […]
The cucumber plants were rated for root galling 14 days after the egg inoculation. […] A commercially available nematicide, fenamiphos, was also evaluated for comparison.

Where [5] appears, read: 40 ppm, scale 0=0-5%, 1=6-20%, 2=21-50%, 3=51-100% root mass galled.

Marks after values point to notes of the source that are not given here.

Consider ten compounds from patent US9051309B2, “3,5-disubstituted-1,3,4-oxadiazol-2(3H)-ones and compositions and methods for controlling nematode pests” (Monsanto Technology LLC, priority 2013, dated 2015).

In the case of `O=c1oc(-c2ccc(Cl)cc2)nn1-c1cccs1` [Formula IIa-iv, 5-(4-chlorophenyl)-3-(thiophen-2-yl)-1,3,4-oxadiazol-2(3H)-one], the gall ratings was 3.00 in test [1] (1 ppm, scale 0-3); 1.67 in test [1] (8 ppm, scale 0-3); 1.00 in test [1] (setting [5]).
For the compound `O=c1oc(-c2cccs2)nn1-c1ccccc1` [Formula Ia-i, 3-phenyl-5-(thiophen-2-yl)-1,3,4-oxadiazol-2(3H)-one], the gall ratings in test [1] (8 ppm, scale 0-3) amounted to 2.00; in test [1] (setting [5]), 1.00.
In the case of `O=c1oc(-c2ccco2)nn1-c1ccccc1` [Formula Ia-ii, 5-(furan-2-yl)-3-phenyl-1,3,4-oxadiazol-2(3H)-one], the gall ratings in test [1] (1 ppm, scale 0-3) is recorded as 3.00; in test [1] (8 ppm, scale 0-3) it was 1.33; in test [1] (setting [5]) it was 0.00.
In the case of `O=c1oc(-c2cccs2)nn1-c1ccc(Cl)cc1` [Formula Ia-iii, 3-(4-chlorophenyl)-5-(thiophen-2-yl)-1,3,4-oxadiazol-2(3H)-one], the “Percent Control” value in test [2] (application rate 0.1 kg/ha) is 29^a Percent; in test [2] (application rate 0.25 kg/ha) it was 56^a Percent; with root knot nematode (RKN) [3] (seed treatment 0.1 mg a.i./seed), 12^b Percent; in the test with root knot nematode (RKN) [3] (seed treatment 0.25 mg a.i./seed), 25^b Percent; in the test on root knot nematode (RKN) [3] (seed treatment 0.5 mg a.i./seed), 62^a Percent; in the test with root knot nematode (RKN) [4] (application rate 0.1 kg/ha) it was 63^a Percent. The “Percent Control” value with root knot nematode (RKN) [4] (application rate 0.25 kg/ha) is reported as 70^a Percent. Further, the gall ratings worked out at 0.00 in test [1] (1 ppm, scale 0-3); 0.33 in test [1] (8 ppm, scale 0-3); 0.00 in test [1] (setting [5]).
On to `O=c1oc(-c2cccs2)nn1-c1ccc(F)cc1` [Formula Ia-iv, 3-(4-fluorophenyl)-5-(thiophen-2-yl)-1,3,4-oxadiazol-2(3H)-one], for which the gall ratings was 3.00 in test [1] (1 ppm, scale 0-3); 2.00 in test [1] (8 ppm, scale 0-3); 1.33 in test [1] (setting [5]).
Regarding `O=c1oc(-c2ccco2)nn1-c1ccc(Cl)cc1` [Formula Ia-v, 3-(4-chlorophenyl)-5-(furan-2-yl)-1,3,4-oxadiazol-2(3H)-one], the gall ratings in test [1] (1 ppm, scale 0-3) is 1.67; in test [1] (8 ppm, scale 0-3), 1.00; in test [1] (setting [5]), 0.33.
Consider `O=c1oc(-n2cccc2)nn1-c1ccccc1` [Formula Ic-i, 3-phenyl-5-(1H-pyrrol-1-yl)-1,3,4-oxadiazol-2(3H)-one], for which the gall ratings in test [1] (8 ppm, scale 0-3) came to 0.33; in test [1] (setting [5]) it was 0.00.
In the case of `O=c1oc(-n2cccc2)nn1-c1ccc(Cl)cc1` [Formula Ic-ii, 3-(4-chlorophenyl)-5-(1H-pyrrol-1-yl)-1,3,4-oxadiazol-2(3H)-one], the gall ratings in test [1] (1 ppm, scale 0-3) turned out to be 2.33; in test [1] (8 ppm, scale 0-3), 1.67; in test [1] (setting [5]) it was 1.00.
Regarding `CNC(=O)O/N=C(\SC)C(=O)N(C)C` [Oxamyl, reference compound], the “Percent Control” value in test [2] (application rate 0.1 kg/ha) is given as 59^a Percent; in test [2] (application rate 0.25 kg/ha), 79^a Percent.
On to Abamectin [reference compound], for which the gall ratings in test [1] (1 ppm, scale 0-3) is 1.67^b. In addition, the “Percent Control” value in the test on root knot nematode (RKN) [3] (seed treatment 0.2 mg a.i./seed) is on record as 37^a Percent.
